The subject of assay [1] is IL-6 in human monocyte cell line (THP-1 cells). The assay is described as follows: IL-6 inhibition in LPS-stimulated THP-1 cells (HTRF). In kind it is cell-based. To be noted: IL-6 in LPS-stimulated THP-1 cells; for EC50: HTRF; for inhibition at 10 µM: read-out: percent inhibition in brackets beside EC50 >10 μM. A digest of the protocol:
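Readout is the 665/620 nm HTRF ratio for secreted IL-6, normalized to DMSO wells, with EC50 from a variable-slope four-parameter fit, or % inhibition at 10 μM when above 10 μM. Cells (1% FBS, 24 h beforehand) got compound for 2 h, then LPS 500 ng/mL for 22 h at 37° C; top dose 10 μM, 0.1% DMSO.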
In general terms: TR-FRET usually uses a lanthanide donor and a delayed reading to cut background.

Assay [2] relates to primary human mesenchymal stem cells (hMSCs). The assay is described as follows: Induction of chondrogenesis in hMSCs (nodule area, Rhodamine B / Nile Red). In kind it is cell-based. To be noted: TGF-β3 as positive control; for Emax: read-out: Max. Activity as % TGF-β3 activity; for EC50: concentration required to induce 50% levels of chondrogenesis, read-out: Conc (nM) of 50% TGF-β3 activity. A digest of the protocol:
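Primary hMSCs (passage 3–6) in incomplete chondrogenic induction medium were treated 6 days at 37° C. with 1:3 dilutions (2700–10 nM in 96-well or 5000–2.2 nM in 384-well; 0.03% DMSO). Rhodamine B/Nile Red-stained nodule area was imaged, normalized to DMSO wells, and EC50 was set against TGF-β3 (10 ng/mL).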

The values that follow come from patent US10195185B2, “3-(1H-imidazo[4,5-C]pyridin-2-yl)-1H-pyrazolo[4,3-B]pyridines and therapeutic uses thereof” (Samumed, LLC, priority 2015, dated 2019).

By inhibition is commonly meant how much of the control response was suppressed.

Where only a bound is given, the exact number is not on record here.

Consider `CC(C)CC(=O)Nc1cncc(-c2ccc3[nH]nc(-c4nc5c(-c6cccc(F)c6)nccc5[nH]4)c3n2)c1` [Compound 2, N-(5-(3-(4-(3-Fluorophenyl)-1H-imidazo[4,5-c]pyridin-2-yl)-1H-pyrazolo [4,3-b]pyridin-5-yl)pyridin-3-yl)-3-methylbutanamide], for which, in assay [1], the EC50 was above 10 µM and the inhibition at 10 µM turned out to be 2.5%. Moreover, in assay [2], the Emax was found to be 58% and the EC50 came out at 21 nM.
Turning to `CN(C)c1cncc(-c2ccc3[nH]nc(-c4nc5c(-c6cccc(F)c6)nccc5[nH]4)c3n2)c1` [Compound 7], the EC50 in assay [1] turned out to be 3.11 µM. In assay [2], the Emax was found to be 58% and the EC50 is 900 nM.
In assay [1], `CN(C)Cc1cncc(-c2ccc3[nH]nc(-c4nc5c(-c6cccc(F)c6)nccc5[nH]4)c3n2)c1` [Compound 13, 1-(5-(3-(4-(3-Fluorophenyl)-1H-imidazo[4,5-c]pyridin-2-yl)-1H-pyrazolo [4,3-b]pyridin-5-yl)pyridin-3-yl)-N,N-dimethylmethanamine] came in with an EC50 of 3.82 µM. Also, in assay [2], the Emax amounted to 76% and the EC50 stood at 30 nM.
With `Fc1cccc(-c2nccc3[nH]c(-c4n[nH]c5ccc(-c6ccncc6)nc45)nc23)c1` [Compound 18, 3-(4-(3-Fluorophenyl)-1H-imidazo[4,5-c]pyridin-2-yl)-5-(pyridin-4-yl)-1H-pyrazolo[4,3-b]pyridine], in assay [1], the EC50 is above 10 µM and the inhibition at 10 µM was found to be 4.6%. In addition, in assay [2], the Emax was 53% and the EC50 turned out to be 2 nM.
As for `O=C(Nc1cncc(-c2ccc3[nH]nc(-c4nc5c(-c6cccc(F)c6)nccc5[nH]4)c3n2)c1)C1CC1` [Compound 20, N-(5-(3-(4-(3-Fluorophenyl)-1H-imidazo[4,5-c]pyridin-2-yl)-1H-pyrazolo [4,3-b]pyridin-5-yl)pyridin-3-yl)cyclopropanecarboxamide], in assay [1], the EC50 was above 10 µM and the inhibition at 10 µM came to 0%.
For `CN(C)c1cncc(-c2ccc3[nH]nc(-c4nc5c(-c6cccs6)nccc5[nH]4)c3n2)c1` [Compound 343, N,N-Dimethyl-5-(3-(4-(thiophen-2-yl)-1H-imidazo[4,5-c]pyridin-2-yl)-1H-pyrazolo[4,3-b]pyridin-5-yl)pyridin-3-amine], the EC50 worked out at 3.43 µM in assay [1] and 100 nM in assay [2]. Further, the Emax in assay [2] was found to be 85%.
In the case of `CN(C)Cc1cncc(-c2ccc3[nH]nc(-c4nc5c(-c6cccs6)nccc5[nH]4)c3n2)c1` [Compound 349, N,N-dimethyl-1-(5-(3-(4-(thiophen-2-yl)-1H-imidazo[4,5-c]pyridin-2-yl)-1H-pyrazolo[4,3-b]pyridin-5-yl)pyridin-3-yl)methanamine], in assay [1], the EC50 is above 10 µM and the inhibition at 10 µM amounted to 0%. In addition, in assay [2], the Emax is 75% and the EC50 was 10 nM.
Turning to `O=C(Nc1cncc(-c2ccc3[nH]nc(-c4nc5c(-c6cccs6)nccc5[nH]4)c3n2)c1)C1CC1` [Compound 356, N-(5-(3-(4-(Thiophen-2-yl)-1H-imidazo[4,5-c]pyridin-2-yl)-1H-pyrazolo [4,3-b]pyridin-5-yl)pyridin-3-yl)cyclopropanecarboxamide], in assay [1], the EC50 is above 10 µM and the inhibition at 10 µM came out at 0%.
For the compound `Cc1ccc(-c2nccc3[nH]c(-c4n[nH]c5ccc(-c6cncc(N)c6)nc45)nc23)s1` [Compound 395, 5-(3-(4-(5-Methylthiophen-2-yl)-1H-imidazo[4,5-c]pyridin-2-yl)-1H-pyrazolo[4,3-b]pyridin-5-yl)pyridin-3-amine], the EC50 in assay [1] worked out at 0.142 µM. For the same compound, in assay [2], the Emax was found to be 73% and the EC50 is 10 nM.
Consider `Cc1ccc(-c2nccc3[nH]c(-c4n[nH]c5ccc(-c6cncc(NC(=O)C(C)C)c6)nc45)nc23)s1` [Compound 401, N-(5-(3-(4-(5-Methylthiophen-2-yl)-1H-imidazo[4,5-c]pyridin-2-yl)-1H-pyrazolo [4,3-b]pyridin-5-yl)pyridin-3-yl)isobutyramide], for which, in assay [1], the EC50 is above 10 µM and the inhibition at 10 µM was 0%. For the same compound, in assay [2], the Emax came to 56% and the EC50 turned out to be 1670 nM.
Consider `Cc1ccc(-c2nccc3[nH]c(-c4n[nH]c5ccc(-c6cncc(NC(=O)C7CCCC7)c6)nc45)nc23)s1` [Compound 414, N-(5-(3-(4-(5-Methylthiophen-2-yl)-1H-imidazo[4,5-c]pyridin-2-yl)-1H-pyrazolo[4,3-b]pyridin-5-yl)pyridin-3-yl)cyclopentanecarboxamide], for which, in assay [1], the EC50 was above 10 µM and the inhibition at 10 µM was found to be 46.3%.
Taken in the same sequence, the figures for `CN(C)CCNc1cc(F)cc(-c2nccc3[nH]c(-c4n[nH]c5ccc(-c6ccccn6)nc45)nc23)c1` [Compound 476, N^1-(3-Fluoro-5-(2-(5-(pyridin-2-yl)-1H-pyrazolo[4,3-b]pyridin-3-yl)-1H-imidazo[4,5-c]pyridin-4-yl)phenyl)-N^2,N^2-dimethylethane-1,2-diamine] were above 10 µM and 35.8%.
Taken in the same sequence, the figures for `CS(=O)(=O)NCc1cc(F)cc(-c2nccc3[nH]c(-c4n[nH]c5ccc(-c6cncc(NC(=O)c7ccccc7)c6)nc45)nc23)c1` [Compound 487, N-(5-(3-(4-(3-Fluoro-5-(methylsulfonamidomethyl)phenyl)-1H-imidazo[4,5-c]pyridin-2-yl)-1H-pyrazolo[4,3-b]pyridin-5-yl)pyridin-3-yl)benzamide] were above 10 µM and 16.9%.
Taken in the same sequence, the figures for `CS(=O)(=O)NCc1cc(F)cc(-c2nccc3[nH]c(-c4n[nH]c5ccc(-c6cncnc6)nc45)nc23)c1` [Compound 503, N-(3-Fluoro-5-(2-(5-(pyrimidin-5-yl)-1H-pyrazolo[4,3-b]pyridin-3-yl)-1H-imidazo[4,5-c]pyridin-4-yl)benzyl)methanesulfonamide] were above 10 µM and 40.8%.
For `Fc1cccc(-c2nccc3[nH]c(-c4n[nH]c5ccc(-c6cncc(OCCN7CCCC7)c6)nc45)nc23)c1` [Compound 514, 3-(4-(3-Fluorophenyl)-1H-imidazo[4,5-c]pyridin-2-yl)-5-(5-(2-(pyrrolidin-1-yl)ethoxy)pyridin-3-yl)-1H-pyrazolo[4,3-b]pyridine], in assay [1], the EC50 is above 10 µM and the inhibition at 10 µM was found to be 47.8%.
The corresponding values for `c1cncc(-c2nccc3[nH]c(-c4n[nH]c5ccc(-c6cncc(OC7CCCCC7)c6)nc45)nc23)c1` [Compound 559, 5-(5-(Cyclohexyloxy)pyridin-3-yl)-3-(4-(pyridin-3-yl)-1H-imidazo[4,5-c]pyridin-2-yl)-1H-pyrazolo[4,3-b]pyridine] are above 10 µM and 42.7%.
In turn, `Oc1cncc(-c2ccc3[nH]nc(-c4nc5c(-c6cccnc6)nccc5[nH]4)c3n2)c1` [Compound 565, 5-(3-(4-(Pyridin-3-yl)-1H-imidazo[4,5-c]pyridin-2-yl)-1H-pyrazolo[4,3-b]pyridin-5-yl)pyridin-3-ol] registered an EC50 in assay [1] of 3.1 µM.
As to `c1cc(-c2nccc3[nH]c(-c4n[nH]c5ccc(-c6cncc(OC7CCNCC7)c6)nc45)nc23)ccn1` [Compound 576, 5-(5-(Piperidin-4-yloxy)pyridin-3-yl)-3-(4-(pyridin-4-yl)-1H-imidazo[4,5-c]pyridin-2-yl)-1H-pyrazolo[4,3-b]pyridine], in assay [1], the EC50 was above 10 µM and the inhibition at 10 µM worked out at 22.3%.
`c1ccc(COc2cncc(-c3ccc4[nH]nc(-c5nc6c(-c7ccncc7)nccc6[nH]5)c4n3)c2)cc1` [Compound 582, 5-(5-(Benzyloxy)pyridin-3-yl)-3-(4-(pyridin-4-yl)-1H-imidazo[4,5-c]pyridin-2-yl)-1H-pyrazolo[4,3-b]pyridine]: in assay [1], the EC50 was above 10 µM and the inhibition at 10 µM came out at 8.3%.
Taken in the same sequence, the figures for `c1cc(-c2nccc3[nH]c(-c4n[nH]c5ccc(-c6cnccn6)nc45)nc23)ccn1` [Compound 584, 5-(Pyrazin-2-yl)-3-(4-(pyridin-4-yl)-1H-imidazo[4,5-c]pyridin-2-yl)-1H-pyrazolo[4,3-b]pyridine] were above 10 µM and 32.2%.
Regarding `O=C(CC1CCNCC1)Nc1cncc(-c2ccc3[nH]nc(-c4nc5c(-c6ccccn6)nccc5[nH]4)c3n2)c1` [Compound 593, 2-(Piperidin-4-yl)-N-(5-(3-(4-(pyri-2-yl)-1H-imidazo[4,5-c]pyridin-2-yl)-1H-pyrazolo[4,3-b]pyridin-5-yl)pyridin-3-yl)acetamide], in assay [1], the EC50 was above 10 µM and the inhibition at 10 µM came out at 32.5%.
The corresponding values for `c1cc2[nH]c(-c3n[nH]c4ccc(-c5cncc(OCCN6CCCC6)c5)nc34)nc2c(N2CCCCC2)n1` [Compound 610, 3-(4-(Piperidin-1-yl)-1H-imidazo[4,5-c]pyridin-2-yl)-5-(5-(2-(pyrrolidin-1-yl)ethoxy)pyridin-3-yl)-1H-pyrazolo[4,3-b]pyridine] are above 10 µM and 34.9%.
Turning to `Cc1cn(-c2nccc3[nH]c(-c4n[nH]c5ccc(-c6cncc(OCCN(C)C)c6)nc45)nc23)cn1` [Compound 627, N,N-Dimethyl-2-((5-(3-(4-(4-methyl-1H-imidazol-1-yl)-1H-imidazo[4,5-c]pyridin-2-yl)-1H-pyrazolo[4,3-b]pyridin-5-yl)pyridin-3-yl)oxy)ethan-1-amine], in assay [1], the EC50 is above 10 µM and the inhibition at 10 µM came to 17.6%.
